This is an account of results in patent US10259779B2 (WAYNE STATE UNIVERSITY, priority 2016, dated 2019).

The target of data set [1] is HDAC3 (Homo sapiens, UniProt O15379). Nature of the data set: ELISA-based HDAC activity assay, HDAC3. As to conditions: read-out: Deacetylase activity (%) HDAC3.
The target of data set [2] is T1, recombinant HDAC8 (Homo sapiens, UniProt Q9BY41).
T1 construct: purchased BPS Bioscience
T1 sequence (Q9BY41 1-377): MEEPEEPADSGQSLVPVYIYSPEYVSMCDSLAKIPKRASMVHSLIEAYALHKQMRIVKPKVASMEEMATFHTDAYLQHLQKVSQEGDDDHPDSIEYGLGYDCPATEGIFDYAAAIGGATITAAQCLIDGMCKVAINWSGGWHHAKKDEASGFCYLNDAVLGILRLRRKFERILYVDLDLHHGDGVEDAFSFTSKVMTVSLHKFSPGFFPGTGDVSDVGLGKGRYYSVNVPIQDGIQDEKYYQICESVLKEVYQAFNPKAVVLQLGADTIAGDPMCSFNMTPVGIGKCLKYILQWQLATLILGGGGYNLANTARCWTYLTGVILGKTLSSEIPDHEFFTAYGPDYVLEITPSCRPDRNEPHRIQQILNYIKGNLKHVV
The experiment in a line: Recombinant HDAC8 inhibition (HDAC-Glo). In kind it is biochemical. The following applies: read-out: Deacetylase activity (%) HDAC8. The protocol: Inhibitory activity with HDAC8 was measured using the following procedure. In a half area 96-well white opaque plate, recombinant HDAC8 (75 ng, BPS Bioscience) was incubated in HDAC-Glo™ buffer (39 μL) with inhibitor in DMSO (1 μL), or DMSO alone (1 μL) as a control, for 15 minutes at room temperature. HDAC-Glo™ reagent (10 μL) was added to each reaction and incubated for 30 min at room temperature. Luminescent signal was measured 30 minutes after adding the substrate reagent using a Geniosplus Fluorimeter (Tecan) at optimal gain. To determine IC50, the luminescent signal was first background corrected with the signal from a background control reaction where no HDAC8 enzyme was added.

Data set [3] in a line: in vitro. As to conditions: human, Jurkat cells (leukemia cell line).
Data set [4] has as its target T2, HDAC6 (Homo sapiens, UniProt Q9UBN7).
T2 sequence (Q9UBN7 1-1215): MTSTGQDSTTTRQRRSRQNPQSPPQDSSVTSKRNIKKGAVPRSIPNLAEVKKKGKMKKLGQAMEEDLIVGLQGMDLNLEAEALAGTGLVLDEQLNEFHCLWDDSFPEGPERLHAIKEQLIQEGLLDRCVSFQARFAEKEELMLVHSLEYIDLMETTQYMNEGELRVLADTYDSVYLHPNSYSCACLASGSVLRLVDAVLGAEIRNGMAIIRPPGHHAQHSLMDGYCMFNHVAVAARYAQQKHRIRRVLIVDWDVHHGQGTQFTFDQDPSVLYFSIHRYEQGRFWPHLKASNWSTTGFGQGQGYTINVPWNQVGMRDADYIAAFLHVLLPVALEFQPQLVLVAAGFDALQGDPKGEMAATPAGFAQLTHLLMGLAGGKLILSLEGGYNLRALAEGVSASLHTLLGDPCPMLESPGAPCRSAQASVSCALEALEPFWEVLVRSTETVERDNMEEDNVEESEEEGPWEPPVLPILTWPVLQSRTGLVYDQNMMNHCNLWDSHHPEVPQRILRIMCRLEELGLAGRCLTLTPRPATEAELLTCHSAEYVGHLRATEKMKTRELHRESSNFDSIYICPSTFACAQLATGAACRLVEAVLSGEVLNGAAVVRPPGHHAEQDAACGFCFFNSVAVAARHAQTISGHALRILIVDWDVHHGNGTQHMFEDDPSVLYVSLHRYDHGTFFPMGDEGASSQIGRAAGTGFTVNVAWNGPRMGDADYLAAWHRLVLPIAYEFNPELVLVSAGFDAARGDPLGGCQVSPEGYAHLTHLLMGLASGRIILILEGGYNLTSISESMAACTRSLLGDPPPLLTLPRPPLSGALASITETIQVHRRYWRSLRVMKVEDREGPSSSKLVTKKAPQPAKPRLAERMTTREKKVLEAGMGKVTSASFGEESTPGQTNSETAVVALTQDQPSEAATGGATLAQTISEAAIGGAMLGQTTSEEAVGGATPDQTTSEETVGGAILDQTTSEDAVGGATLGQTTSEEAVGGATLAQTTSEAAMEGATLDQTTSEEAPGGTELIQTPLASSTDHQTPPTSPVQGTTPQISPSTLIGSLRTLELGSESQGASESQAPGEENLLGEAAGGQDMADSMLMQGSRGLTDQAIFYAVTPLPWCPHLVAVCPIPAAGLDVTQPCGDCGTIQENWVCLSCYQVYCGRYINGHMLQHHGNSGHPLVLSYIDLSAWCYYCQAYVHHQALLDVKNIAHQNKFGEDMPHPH
Nature of the data set: ELISA-based HDAC activity assay, HDAC6. As to conditions: read-out: Deacetylase activity (%) HDAC6. (In general: ELISA stands for enzyme-linked immunosorbent assay.)

Data set [5] has as its target T3, HDAC1 (Homo sapiens, UniProt Q13547). Nature of the data set: ELISA-based HDAC activity assay, HDAC1. The following applies: read-out: Deacetylase activity (%) HDAC1.
Data set [6] has as its system HDAC proteins in HeLa cell lysates. The experiment in a line: Global HDAC inhibition with HeLa cell lysates (HDAC-Glo I/II substrate). In kind it is biochemical. As to conditions: Hela Lysate. The protocol:
HDAC activity was measured using the commercially available HDAC-Glo™ I/II substrate (Promega).
Lysates were prepared according to the reported procedure.^28 HeLa-S3 cells (purchased from Biovest) were lysed in lysis buffer (1×10^9 cells in 10 mL lysis buffer; 50 mM Tris-HCl, pH 8.0, 10% glycerol, 150 mM NaCl, 0.5% Triton X-100, and 1× protease inhibitor cocktail (GenDEPOT)) with rotation at 4° C. for 30 min. Cell debris was removed by centrifugation at 12000 rpm at 4° C. for 30 min. Protein concentration of the supernatant was determined using Bio-Rad protein assay (BioRad, Bradford reagent). Lysates were stored at −80° C.
To measure global HDAC inhibition, HeLa cell lysates (1 μg total protein) were mixed with HDAC-Glo™ buffer in polystyrene 96-well half area white plate (Corning) to a final volume of 12 μL, followed by addition of inhibitors in DMSO (0.5 μL) and incubation for 15 min at room temperature without rocking. An uninhibited control reaction was also included that contained DMSO (0.5 μL). Finally, deacetylase activity was measured using the HDAC-Glo™ assay kit (Promega) as per the manufacturer's protocol. Specifically, the HDAC-Glo™ substrate (1 mL) and developer ([…]) were first premixed to form the HDAC-Glo™ reagents. Then, to monitor deacetylase activity, HDAC-Glo™ reagent (5 μL) and HDAC-Glo™ buffer (7.5 μL) were added to each well (25 μL total volume) and incubated for 35 min at room temperature without rocking. The deacetylase activity was measured as luminescent signal using a GeniosPlus Fluorimeter (Tecan) at optimal gain. The concentrations of inhibitors reported in the dose-dependent studies (Table 2) are final concentrations after addition of HDAC-Glo™ reagent HDAC-Glo™ buffer.

Data set [7] concerns the target HDAC2 (Homo sapiens, UniProt Q92769). Nature of the data set: ELISA-based HDAC activity assay, HDAC2. The following applies: read-out: Deacetylase activity (%) HDAC2.
Data set [8] relates to U937 cells. Nature of the data set: In vitro cell growth inhibition, MTT assay, U937. In kind it is cell-based. The following applies: U937 cell line.
For data set [9], the target named is T2, HDAC6. As to conditions: single concentration 1 μM; cited from earlier work.
Data set [10] relates to acetyl-α-tubulin (HDAC6 substrate) in U937 cells. The experiment in a line: In cellulo selectivity testing, western blot of acetyl-α-tubulin. In kind it is cell-based. The following applies: 18 hours, SAHA 5 μM, 1f 20-60 μM, compared to DMSO control.
Data set [11] deals with T3, HDAC1. The following applies: single concentration 1 μM; cited from earlier work.
In data set [12] the test system is acetyl-histone H3 (HDAC1, 2, 3 substrate) in U937 cells. The experiment in a line: In cellulo selectivity testing, western blot of acetyl-histone H3. In kind it is cell-based. The following applies: 18 hours, SAHA 5 μM. In general terms: In western blotting, separated proteins are transferred to a membrane and probed.
Data set [13] concerns the target T2, HDAC6. As to conditions: literature ref 55; cited from earlier work.

Chain of HDAC3 (O15379 whole entry): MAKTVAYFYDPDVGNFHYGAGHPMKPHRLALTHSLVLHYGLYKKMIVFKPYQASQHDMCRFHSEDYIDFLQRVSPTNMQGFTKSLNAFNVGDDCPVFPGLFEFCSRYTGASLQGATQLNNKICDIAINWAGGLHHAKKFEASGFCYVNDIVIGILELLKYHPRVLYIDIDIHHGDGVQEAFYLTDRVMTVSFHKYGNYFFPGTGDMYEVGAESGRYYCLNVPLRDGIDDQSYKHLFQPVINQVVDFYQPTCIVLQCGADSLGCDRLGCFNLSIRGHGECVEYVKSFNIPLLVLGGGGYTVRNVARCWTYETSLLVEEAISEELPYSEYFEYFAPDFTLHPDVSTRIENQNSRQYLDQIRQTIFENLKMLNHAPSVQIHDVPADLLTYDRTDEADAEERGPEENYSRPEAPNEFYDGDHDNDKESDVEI
Chain of HDAC3 (Q9Y618 whole entry partner): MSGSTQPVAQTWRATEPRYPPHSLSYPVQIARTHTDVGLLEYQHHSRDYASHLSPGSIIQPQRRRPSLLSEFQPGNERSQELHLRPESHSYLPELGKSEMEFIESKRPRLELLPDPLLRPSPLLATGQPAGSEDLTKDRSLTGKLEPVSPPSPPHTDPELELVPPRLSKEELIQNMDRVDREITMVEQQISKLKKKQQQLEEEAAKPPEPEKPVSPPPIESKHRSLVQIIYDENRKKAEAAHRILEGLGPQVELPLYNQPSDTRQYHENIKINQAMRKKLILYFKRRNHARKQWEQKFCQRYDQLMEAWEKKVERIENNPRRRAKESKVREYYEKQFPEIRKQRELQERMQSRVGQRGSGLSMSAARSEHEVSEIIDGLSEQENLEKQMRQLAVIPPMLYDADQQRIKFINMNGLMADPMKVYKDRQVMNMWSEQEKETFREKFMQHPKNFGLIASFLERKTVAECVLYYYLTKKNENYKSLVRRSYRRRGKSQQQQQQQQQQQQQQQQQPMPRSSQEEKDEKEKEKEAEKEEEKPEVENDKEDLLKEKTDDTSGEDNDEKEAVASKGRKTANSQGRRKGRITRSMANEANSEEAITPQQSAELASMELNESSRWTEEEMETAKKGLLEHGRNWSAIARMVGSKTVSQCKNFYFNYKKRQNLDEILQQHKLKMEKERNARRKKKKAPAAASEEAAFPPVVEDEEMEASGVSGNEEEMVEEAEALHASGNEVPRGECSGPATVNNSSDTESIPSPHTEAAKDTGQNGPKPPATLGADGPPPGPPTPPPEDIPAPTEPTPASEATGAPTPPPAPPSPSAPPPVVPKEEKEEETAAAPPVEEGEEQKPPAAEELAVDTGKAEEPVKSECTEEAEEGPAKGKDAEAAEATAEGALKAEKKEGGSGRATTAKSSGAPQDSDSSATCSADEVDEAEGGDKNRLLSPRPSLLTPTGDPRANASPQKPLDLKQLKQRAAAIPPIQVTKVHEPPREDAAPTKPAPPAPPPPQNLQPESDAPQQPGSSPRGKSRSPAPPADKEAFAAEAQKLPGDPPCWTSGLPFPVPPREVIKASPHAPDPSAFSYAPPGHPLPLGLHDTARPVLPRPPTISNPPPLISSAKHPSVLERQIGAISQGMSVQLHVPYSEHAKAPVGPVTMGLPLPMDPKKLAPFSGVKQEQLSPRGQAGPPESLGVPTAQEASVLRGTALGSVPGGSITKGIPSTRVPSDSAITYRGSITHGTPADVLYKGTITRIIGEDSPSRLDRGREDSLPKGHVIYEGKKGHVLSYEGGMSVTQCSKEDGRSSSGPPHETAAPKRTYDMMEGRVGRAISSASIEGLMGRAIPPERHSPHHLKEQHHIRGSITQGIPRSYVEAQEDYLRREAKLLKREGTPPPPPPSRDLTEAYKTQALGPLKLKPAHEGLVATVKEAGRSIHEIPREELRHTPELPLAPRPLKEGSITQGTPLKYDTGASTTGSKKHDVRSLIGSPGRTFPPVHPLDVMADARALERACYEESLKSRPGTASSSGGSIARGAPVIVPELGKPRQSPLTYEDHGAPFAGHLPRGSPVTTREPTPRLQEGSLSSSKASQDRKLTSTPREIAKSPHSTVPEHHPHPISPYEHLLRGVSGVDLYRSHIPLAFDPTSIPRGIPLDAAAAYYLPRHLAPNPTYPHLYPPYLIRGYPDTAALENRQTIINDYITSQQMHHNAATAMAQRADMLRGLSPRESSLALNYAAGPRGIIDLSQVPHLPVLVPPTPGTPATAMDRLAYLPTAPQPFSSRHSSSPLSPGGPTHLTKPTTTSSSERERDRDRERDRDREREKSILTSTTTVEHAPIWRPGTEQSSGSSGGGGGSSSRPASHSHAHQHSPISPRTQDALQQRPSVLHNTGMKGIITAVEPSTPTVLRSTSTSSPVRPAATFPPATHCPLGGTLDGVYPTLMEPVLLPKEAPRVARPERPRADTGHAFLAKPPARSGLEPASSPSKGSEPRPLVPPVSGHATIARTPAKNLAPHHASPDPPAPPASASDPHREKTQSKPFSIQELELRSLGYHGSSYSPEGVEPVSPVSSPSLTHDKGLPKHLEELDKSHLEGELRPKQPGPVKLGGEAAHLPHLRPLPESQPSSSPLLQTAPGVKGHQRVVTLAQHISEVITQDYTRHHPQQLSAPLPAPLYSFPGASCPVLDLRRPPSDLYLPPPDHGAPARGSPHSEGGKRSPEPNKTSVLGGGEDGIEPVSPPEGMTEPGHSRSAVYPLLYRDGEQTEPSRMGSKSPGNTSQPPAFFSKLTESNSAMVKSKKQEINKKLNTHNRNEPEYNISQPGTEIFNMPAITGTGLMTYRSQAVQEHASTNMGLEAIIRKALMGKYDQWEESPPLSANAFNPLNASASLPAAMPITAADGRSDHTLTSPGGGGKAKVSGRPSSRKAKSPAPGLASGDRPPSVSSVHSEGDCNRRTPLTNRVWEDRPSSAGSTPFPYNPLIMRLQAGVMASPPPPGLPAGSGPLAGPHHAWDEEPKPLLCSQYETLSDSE
Chain of HDAC2 (Q92769 whole entry): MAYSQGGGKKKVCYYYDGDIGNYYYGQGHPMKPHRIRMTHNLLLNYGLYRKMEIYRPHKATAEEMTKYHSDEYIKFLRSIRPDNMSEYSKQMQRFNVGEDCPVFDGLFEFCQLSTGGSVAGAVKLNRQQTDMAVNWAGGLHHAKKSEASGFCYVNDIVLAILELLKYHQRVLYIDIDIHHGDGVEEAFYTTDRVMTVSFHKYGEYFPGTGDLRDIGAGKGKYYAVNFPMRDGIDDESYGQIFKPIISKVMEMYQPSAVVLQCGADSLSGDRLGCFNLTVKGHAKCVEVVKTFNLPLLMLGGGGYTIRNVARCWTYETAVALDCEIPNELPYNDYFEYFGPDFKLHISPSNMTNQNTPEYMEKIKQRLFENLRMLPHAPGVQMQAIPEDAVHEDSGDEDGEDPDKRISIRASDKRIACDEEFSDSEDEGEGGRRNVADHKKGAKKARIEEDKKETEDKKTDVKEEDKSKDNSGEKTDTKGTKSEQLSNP
T3 sequence (Q13547 whole entry): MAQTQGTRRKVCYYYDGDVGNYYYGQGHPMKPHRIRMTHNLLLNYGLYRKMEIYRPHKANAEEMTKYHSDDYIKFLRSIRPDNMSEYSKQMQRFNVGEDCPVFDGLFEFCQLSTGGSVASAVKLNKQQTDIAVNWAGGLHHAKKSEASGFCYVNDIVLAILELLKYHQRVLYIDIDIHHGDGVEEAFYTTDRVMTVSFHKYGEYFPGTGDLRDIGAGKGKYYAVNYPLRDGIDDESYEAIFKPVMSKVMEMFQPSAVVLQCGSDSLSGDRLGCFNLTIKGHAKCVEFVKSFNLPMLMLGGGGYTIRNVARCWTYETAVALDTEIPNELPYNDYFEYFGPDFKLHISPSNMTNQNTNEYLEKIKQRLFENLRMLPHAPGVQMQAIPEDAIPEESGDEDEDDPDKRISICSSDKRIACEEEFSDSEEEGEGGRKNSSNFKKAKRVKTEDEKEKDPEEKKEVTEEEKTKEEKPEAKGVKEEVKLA

`CCCCC(CCCC(=O)Nc1ccccc1)CCC(=O)NO` (racemic) [Compound 1c, 4-butyl-N^1-hydroxy-N^8-phenyloctanediamide]: the activity at 3.5 µM turned out to be 79 ± 3% in [1], 81 ± 1% in [5] and 81 ± 5% in [7]. Besides, the results for the activity at 7 µM in data set [1], in data set [5] and in data set [7] were 79 ± 3%, 67 ± 2% and 71 ± 2%, respectively. The activity at 14 µM in data set [1] was found to be 64 ± 2%; in [5], 53 ± 3%; in data set [7] it was 57 ± 1%. For the same compound, the values for the activity at 28 µM in data set [1], in [5] and in [7] were 48 ± 5%, 35 ± 1% and 43 ± 2%, respectively. In addition, the activity at 56 µM in [1] was 25 ± 5%; in data set [5], 19 ± 1%; in [7] it was 18 ± 10%. The activity at 0.1 µM came out at 41 ± 5% in data set [2] (1.0 × 10^−7 M) and 46 ± 9% in data set [4]. For the same compound, the activity at 0.0125 µM in [2] (1.25 × 10^−8 M) came to 84 ± 1%. For the same compound, the figures for the activity at 0.2 µM in data set [2] (2.0 × 10^−7 M) and in data set [4] were 28 ± 4% and 39 ± 5%, respectively. Besides, the activity at […] turned out to be 74 ± 3% in [2] (2.5 × 10^−8 M), 70 ± 6% in data set [4] and 87 ± 1% in [7]. Besides, the activity at 0.05 µM in data set [2] (5.0 × 10^−8 M) was 61 ± 7%; in data set [4], 61 ± 6%. For the same compound, the viability (commonly a read-out of living cells in per cent, often relative to untreated cells) at 44 h, 1 µM in data set [3] turned out to be 98 ± 6%. This compound also yielded a viability at 44 h, 10 µM in [3] of 62 ± 16%. For the same compound, in data set [4], the activity at 0.4 µM worked out at 23 ± 3%. In addition, the “Deacetylase activity (%)” value in data set [6] (3.0 × 10^−5 M) is listed as 69 ± 2%; in [6] (6.0 × 10^−5 M), 44 ± 4%; in [6] ([…] 10^−4 M) it was 24 ± 1%; in data set [6] ([…] 10^−5 M) it was 88 ± 1%; in data set [6] ([…] 10^−6 M), 97 ± 2%. Further, a half-maximal effect in data set [8] (EC50) was put at 34 µM.
`O=C(CCCCCCC(=O)Nc1ccccc1)NO` [SAHA, suberoylamide hydroxamic acid] gave a viability at 44 h, 10 µM in [3] of 5 ± 3%. The “Deacetylase activity (%) HDAC6” value in [9] is reported as 7.9 ± 1.6%. For the same compound, the “levels of acetyl-α-tubulin (AcTub), western blot” value in data set [10] is on record as “increases levels”. In [11], the “Deacetylase activity (%) HDAC1” value was 8.9 ± 0.1%. Also, the “levels of acetyl-histone H3 (AcH3), western blot” value in data set [12] is “increases levels”.
In the case of `CCCC(CCC)C(=O)NO` [Valpropylhydroxamic acid], in data set [13], the “fold selectivity for HDAC6 and 8 against HDAC1, 2, and 3 (reported)” value is reported as 9-17 fold.
